The text below walks through data of ChEMBL document CHEMBL3425483, “Synthesis, characterization, hypoglycemic and aldose reductase inhibition activity of arylsulfonylspiro[fluorene-9,5'-imidazolidine]-2',4'-diones” (Eur J Med Chem, 2015).

pIC50: −log10 of the molar value. Calls of active or inactive are those of the source. The calls are words filed in the database; no cut-off is given here.

In data set [1] the test system is Mus musculus. As to the kind of experiment: In-vivo hypoglycemic activity in alloxan-pretreated diabetic BALB/c mouse assessed as blood glucose level after 4 hrs by glucometer analysis (reference value: 239.0 to 444.4 mg/dl). In kind it is functional.
The subject of data set [2] is Mus musculus. The data set can be described thus: In-vivo hypoglycemic activity in alloxan-pretreated diabetic BALB/c mouse assessed as blood glucose level after 6 hrs by glucometer analysis (reference value: 239.0 to 444.4 mg/dl). In kind it is functional.
The species entered for data set [3] is Bos taurus. As to the kind of experiment: Selectivity index, ratio of IC50 for ALR1 in calf kidney to IC50 for ALR2 in calf lenses. In kind it is tissue-based. The following applies: Lens of camera-type eye.
The test system of data set [4] is Mus musculus. As to the kind of experiment: In-vivo hypoglycemic activity in alloxan-pretreated diabetic BALB/c mouse assessed as blood glucose level after 8 hrs by glucometer analysis (reference value: 239.0 to 444.4 mg/dl). In kind it is functional.
Data set [5] can be described thus: Retardation factor of the compound using petroleum ether/ethylacetate (6:4) as solvent system by TLC. In kind it is physicochemical.
Data set [6] concerns aldehyde reductase (ALR1), Bos taurus. As to the kind of experiment: Inhibition of ALR1 in calf kidney using sodium D-glucoronate as substrate at 0.6 mM treated with compound for 10 mins prior to substrate addition by UV spectrophotometer analysis.
Data set [7] has as its system Mus musculus. The data set can be described thus: In-vivo hypoglycemic activity in alloxan-pretreated diabetic BALB/c mouse assessed as blood glucose level after 2 hrs by glucometer analysis (reference value: 239.0 to 444.4 mg/dl). Format: functional.
Data set [8] has as its target Aldo-keto reductase family 1 member B1 (Bos taurus, UniProt P16116). The data set can be described thus: Inhibition of ALR2 in calf lenses using DL-glyceraldehyde as substrate treated with compound for 10 mins prior to substrate addition by UV spectrophotometer analysis. Also noted: species or system Lens of camera-type eye.
Data set [9] deals with Mus musculus. The data set can be described thus: In-vivo hypoglycemic activity in alloxan-pretreated diabetic BALB/c mouse assessed as blood glucose level at 10 mg/kg after 8 hrs by glucometer analysis. Format: functional.
In data set [10] the test system is Mus musculus. As to the kind of experiment: In-vivo hypoglycemic activity in alloxan-pretreated diabetic BALB/c mouse assessed as blood glucose level at 10 mg/kg after 8 hrs by glucometer analysis (reference value: 385.2 +/- 8.94 mg/dl). In kind it is functional.
The subject of data set [11] is Mus musculus. As to the kind of experiment: In-vivo hypoglycemic activity in alloxan-pretreated diabetic BALB/c mouse assessed as blood glucose level at 10 mg/kg after 6 hrs by glucometer analysis (reference value: 385.2 +/- 8.94 mg/dl). In kind it is functional.
The subject of data set [12] is Mus musculus. The data set can be described thus: In-vivo hypoglycemic activity in alloxan-pretreated diabetic BALB/c mouse assessed as blood glucose level at 10 mg/kg after 4 hrs by glucometer analysis (reference value: 385.2 +/- 8.94 mg/dl). In kind it is functional.
Data set [13] relates to Mus musculus. As to the kind of experiment: In-vivo hypoglycemic activity in alloxan-pretreated diabetic BALB/c mouse assessed as blood glucose level at 10 mg/kg after 2 hrs by glucometer analysis (reference value: 385.2 +/- 8.94 mg/dl). In kind it is functional.
The target of data set [14] is Aldo-keto reductase family 1 member A1 (Bos taurus, UniProt Q3ZCJ2). The data set can be described thus: Inhibition of ALR1 in calf kidney using sodium D-glucoronate as substrate treated with compound for 10 mins prior to substrate addition by UV spectrophotometer analysis.
The test system of data set [15] is Mus musculus. The data set can be described thus: In-vivo hypoglycemic activity in alloxan-pretreated diabetic BALB/c mouse assessed as decrease in blood glucose level after 8 hrs by glucometer analysis. In kind it is functional.
Data set [16] has as its target Aldo-keto reductase family 1 member B1 (Bos taurus) (UniProt P16116). The data set can be described thus: Uncompetitive inhibition of ALR2 in calf lenses using DL-glyceraldehyde as substrate at 20 uM by Lineweaver-Burk plot analysis. The following applies: Lens of camera-type eye.
Data set [17] has the same target. As to the kind of experiment: Inhibition of ALR2 in calf lenses using DL-glyceraldehyde as substrate at 0.6 mM treated with compound for 10 mins prior to substrate addition by UV spectrophotometer analysis. The following applies: Lens of camera-type eye.

Chain of Aldo-keto reductase family 1 member A1 (Q3ZCJ2 2-325 limits assumed): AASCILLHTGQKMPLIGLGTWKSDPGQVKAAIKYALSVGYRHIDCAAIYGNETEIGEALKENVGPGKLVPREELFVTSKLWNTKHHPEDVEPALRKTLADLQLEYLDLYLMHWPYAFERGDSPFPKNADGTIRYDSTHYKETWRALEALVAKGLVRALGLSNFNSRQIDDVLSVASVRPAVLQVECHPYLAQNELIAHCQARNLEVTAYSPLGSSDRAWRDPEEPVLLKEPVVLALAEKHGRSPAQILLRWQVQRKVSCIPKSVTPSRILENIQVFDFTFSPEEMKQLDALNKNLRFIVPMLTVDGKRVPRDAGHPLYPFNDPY

Consider `O=C1c2ccccc2C(=O)c2cc(S(=O)(=O)N3C(=O)NC4(C3=O)c3ccccc3-c3ccccc34)ccc21`, for which the Activity is 336.4 mg/dL in [1], 400.4 mg/dL in [2], 442.6 mg/dL in [4] and 305.8 mg/dL in data set [7]. Also, in data set [3], the Ratio IC50 came to 2.41. This molecule also came in with a Rf in data set [5] of 0.47. Moreover, in [6], the inhibition stood at 44.9%. The pIC50 in [8] is 4.95.

Turning to `COc1ccc(Cl)cc1C(=O)NCCc1ccc(S(=O)(=O)NC(=O)NC2CCCCC2)cc1` [GLYBURIDE], in data set [9], the inhibition in vivo at 10 mg/kg was found to be 60.9%. Moreover, the Activity came to 150.5 mg/dL in data set [10], 170.7 mg/dL in data set [11], 229.3 mg/dL in [12] and 289.1 mg/dL in data set [13].

Turning to `O=C1NC(=O)C2(c3ccccc3-c3ccccc32)N1S(=O)(=O)c1ccc(Cl)cc1`, the Activity in data set [1] came to 289 mg/dL; in data set [2] it was 323.4 mg/dL; in data set [4], 355 mg/dL; in data set [7], 259.8 mg/dL. Besides, the Ratio IC50 in [3] turned out to be 9.68. The pIC50 was 4.92 in [14] and 5.76 in data set [8]. Also, in data set [5], the Rf is given as 0.2.

With `Cc1ccc(S(=O)(=O)N2C(=O)NC3(C2=O)c2ccccc2-c2ccccc23)cc1`, the Activity in data set [1] came to 180 mg/dL; in data set [2] it was 146.6 mg/dL; in data set [4], 123.6 mg/dL; in data set [7], 229.3 mg/dL. For the same molecule, the Ratio IC50 in [3] was 1.81. Moreover, the “inhibition (INH)” value in data set [15] amounted to 48.28%. For the same molecule, the results for the pIC50 in [14] and in data set [8] were 5.29 and 5.55, respectively. In [5], this molecule had a Rf of 0.27.

`O=C1c2ccccc2C(=O)c2cc(S(=O)(=O)N3C(=O)NC(=O)C34c3ccccc3-c3ccccc34)ccc21`: the Activity in data set [1] was 500 mg/dL; in data set [2], 522.2 mg/dL; in [4] it was 544.6 mg/dL; in [7], 467 mg/dL. Also, the Ratio IC50 in [3] was found to be 1.97. The values for the pIC50 in data set [14] and in data set [8] were 4.69 and 4.99, respectively. For the same molecule, the Rf in data set [5] is listed as 0.44.

For `O=C1NC(=O)C2(c3ccccc3-c3ccccc32)N1S(=O)(=O)c1ccc([N+](=O)[O-])cc1`, the Activity in data set [1] is 189.4 mg/dL; in data set [2], 176.8 mg/dL; in data set [4], 138.2 mg/dL; in [7], 226.6 mg/dL. The “inhibition (INH)” value in data set [15] turned out to be 62.86%. Moreover, the pIC50 in data set [14] is 4.91; in [8], 5.10. This molecule also yielded a Rf in [5] of 0.31.

Take `O=C1NC2(C(=O)N1S(=O)(=O)c1ccc([N+](=O)[O-])cc1)c1ccccc1-c1ccccc12`: the Activity in data set [1] came out at 190.4 mg/dL; in [2], 175.2 mg/dL; in data set [4], 121.8 mg/dL; in data set [7], 226.6 mg/dL. The Ratio IC50 in [3] was 1.95. Moreover, the “inhibition (INH)” value in data set [15] is listed as 55.25%. The results for the pIC50 in data set [14] and in [8] were 5.45 and 5.74, respectively. For the same molecule, the Rf in data set [5] is listed as 0.35.

Take `O=C1NC(=O)C2(c3ccccc3-c3ccccc32)N1S(=O)(=O)c1ccc(Br)cc1`: the Activity was found to be 168 mg/dL in [1], 115.8 mg/dL in data set [2], 72.8 mg/dL in data set [4] and 217 mg/dL in data set [7]. Further, in data set [3], the Ratio IC50 amounted to 2.97. Besides, in [15], the “inhibition (INH)” value came to 70.55%. The values for the pIC50 in data set [14] and in data set [8] were 4.94 and 5.41, respectively. In addition, the Rf in [5] is 0.33.

Consider `O=C1NC(=O)C2(c3ccccc3-c3ccccc32)N1S(=O)(=O)c1ccc2ccccc2c1`, for which the Activity in [1] came out at 197.3 mg/dL; in [2] it was 138.5 mg/dL; in [4], 135 mg/dL; in data set [7], 271.2 mg/dL. Further, the Ratio IC50 in data set [3] is 0.45. In [15], the “inhibition (INH)” value is listed as 64.13%. The pIC50 was 4.90 in data set [14] and 4.56 in data set [8]. In addition, the Rf in data set [5] was found to be 0.41.

For `Cc1ccc(S(=O)(=O)N2C(=O)NC(=O)C23c2ccccc2-c2ccccc23)cc1`, the Activity in [1] was 239.4 mg/dL; in data set [2], 152.2 mg/dL; in [4], 116.2 mg/dL; in [7] it was 286.2 mg/dL. Moreover, the Ratio IC50 in [3] stood at 3.84. Also, in data set [15], the “inhibition (INH)” value was 61.67%. The pIC50 in data set [14] was 5.06; in data set [8] it was 5.64. The molecule also yielded a Rf in [5] of 0.25.

With `COc1ccc(S(=O)(=O)N2C(=O)NC(=O)C23c2ccccc2-c2ccccc23)cc1`, the Activity in data set [1] turned out to be 205.6 mg/dL; in data set [2], 143.6 mg/dL; in [4] it was 129 mg/dL; in data set [7], 275.6 mg/dL. The Ratio IC50 in data set [3] is 2.39. Moreover, in [15], the “inhibition (INH)” value was 66.38%. Also, the pIC50 in [14] is 4.86; in data set [8], 5.24. The Rf in [5] is 0.43.

For `COc1ccc(S(=O)(=O)N2C(=O)NC3(C2=O)c2ccccc2-c2ccccc23)cc1`, the Activity was determined as 376 mg/dL in [1], 402.8 mg/dL in data set [2], 418.8 mg/dL in data set [4] and 380.2 mg/dL in data set [7]. The Ratio IC50 in [3] came to 25.6. Also, the pIC50 in [14] was 4.58; in data set [8] it was 5.99. Also, in data set [5], the Rf came out at 0.42.

`O=C1NC2(C(=O)N1S(=O)(=O)c1ccc(Cl)cc1)c1ccccc1-c1ccccc12`: the Activity in data set [1] is 160.4 mg/dL; in [2], 78.8 mg/dL; in data set [4], 68 mg/dL; in data set [7], 232 mg/dL. In addition, the Ratio IC50 in data set [3] came out at 53.8. The “inhibition (INH)” value in [15] came out at 72.24%. This molecule had a Rf in data set [5] of 0.31. In data set [6], the inhibition was 47.9%. Further, the inhibition result in data set [16] was “Active”. In addition, the pIC50 in data set [8] was 6.05.

With `O=C1NC2(C(=O)N1S(=O)(=O)c1ccc3ccccc3c1)c1ccccc1-c1ccccc12`, the Activity in [1] was 206 mg/dL; in [2], 123 mg/dL; in [4], 108.6 mg/dL; in [7], 277 mg/dL. The “inhibition (INH)” value in [15] is on record as 66.44%. Moreover, in data set [5], the Rf is 0.44. For the same molecule, the inhibition came out at 47.9% in data set [6] and 52% in data set [17].

Take `O=C1NC2(C(=O)N1S(=O)(=O)c1ccc(Br)cc1)c1ccccc1-c1ccccc12`: the Activity in data set [1] worked out at 297.2 mg/dL; in data set [2] it was 339.5 mg/dL; in [4] it was 63.5 mg/dL; in [7], 266.5 mg/dL. Besides, the Ratio IC50 in data set [3] was determined as 9.68. In data set [15], the “inhibition (INH)” value worked out at 73.72%. The Rf in [5] stood at 0.31. Also, in [6], the inhibition turned out to be 52%. Moreover, in data set [8], the pIC50 is 5.27.

By inhibition is commonly meant the share of the control response that was lost under treatment. One may read the pIC50 as −log10 of the IC50, conventionally taken in molar units. The term inhibition in vivo denotes the relative decrease from the control value, in per cent.
